Source: ChEMBL document CHEMBL1201862, “PubChem BioAssay data set” (2004)
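Results reflect a 48-hour exposure of cells in 96-well plates to compound at five concentrations. GI50 marks 50% less growth.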 Calls of active or inactive are those of the source. Rule as the data show it: active = GI50 up to about 1.1 µM and inactive = higher.

What was measured:
Test in all cases: DTP human tumour cell line panel, 48 h
SNB-19 = system: SNB-19
Malme-3M = system: Malme-3M
LOX IMVI = system: LOX IMVI
HCT-116 = system: HCT-116
MDA-N = system: MDA-N
HT-29 = system: HT-29
HCC 2998 = system: HCC 2998
NCI-H23 = system: NCI-H23
M14 = system: M14
SK-MEL-2 = system: SK-MEL-2
HL-60 = system: HL-60
OVCAR-5 = system: OVCAR-5
SF-295 = system: SF-295
NCI-H522 = system: NCI-H522
MDA-MB-435 = system: MDA-MB-435
HOP-92 = system: HOP-92
OVCAR-4 = system: OVCAR-4
Hs-578T = system: Hs-578T
EKVX = system: EKVX
IGROV-1 = system: IGROV-1
K562 = system: K562
OVCAR-8 = system: OVCAR-8
HCT-15 = system: HCT-15
A549 = system: A549
MDA-MB-231 = system: MDA-MB-231
UACC-257 = system: UACC-257
A498 = system: A498
SN12C = system: SN12C
HOP-62 = system: HOP-62
786-0 = system: 786-0
RPMI-8226 = system: RPMI-8226
SF-539 = system: SF-539
NCI-H226 = system: NCI-H226
MCF7 = system: MCF7
MOLT-4 = system: MOLT-4
OVCAR-3 = system: OVCAR-3
CCRF-CEM = system: CCRF-CEM
SK-MEL-5 = system: SK-MEL-5
SK-MEL-28 = system: SK-MEL-28
NCI/ADR-RES = system: NCI/ADR-RES
PC-3 = system: PC-3
CAKI-1 = system: CAKI-1
UO-31 = system: UO-31
NCI-H460 = system: NCI-H460
KM12 = system: KM12
COLO 205 = system: COLO 205
SF-268 = system: SF-268
DU-145 = system: DU-145
ACHN = system: ACHN
BT-549 = system: BT-549
SW-620 = system: SW-620
SR = system: SR
SNB-75 = system: SNB-75
RXF 393 = system: RXF 393
U-251 = system: U-251
TK-10 = system: TK-10
UACC-62 = system: UACC-62
T47D = system: T47D
SK-OV-3 = system: SK-OV-3

## CCC1(O)CN(CCOC)[C@H]2C[C@@H]1C(=O)c1[nH]c3ccccc3c12 (some centres not stated)
SNB-19
  GI50: > 100 µM (inactive)
Malme-3M
  GI50: > 100 µM (inactive)
LOX IMVI
  GI50: > 100 µM (inactive)
HCT-116
  GI50: > 100 µM (inactive)
MDA-N
  GI50: > 100 µM (inactive)
HT-29
  GI50: > 100 µM (inactive)
HCC 2998
  GI50: > 100 µM (inactive)
NCI-H23
  GI50: > 100 µM (inactive)
M14
  GI50: > 100 µM (inactive)
SK-MEL-2
  GI50: > 100 µM (inactive)
HL-60
  GI50: > 100 µM (inactive)
OVCAR-5
  GI50: > 100 µM (inactive)
SF-295
  GI50: > 100 µM (inactive)
NCI-H522
  GI50: > 100 µM (inactive)
MDA-MB-435
  GI50: > 100 µM (inactive)
HOP-92
  GI50: > 100 µM (inactive)
OVCAR-4
  GI50: > 100 µM (inactive)
Hs-578T
  GI50: > 100 µM (inactive)
EKVX
  GI50: > 100 µM (inactive)
IGROV-1
  GI50: > 100 µM (inactive)
K562
  GI50: > 100 µM (inactive)
OVCAR-8
  GI50: > 100 µM (inactive)
HCT-15
  GI50: > 100 µM
A549
  GI50: > 100 µM (inactive)
MDA-MB-231
  GI50: > 100 µM (inactive)
UACC-257
  GI50: > 100 µM (inactive)
A498
  GI50: > 100 µM (inactive)
SN12C
  GI50: > 100 µM (inactive)
HOP-62
  GI50: > 100 µM (inactive)
786-0
  GI50: > 100 µM (inactive)
RPMI-8226
  GI50: > 100 µM (inactive)
SF-539
  GI50: > 100 µM (inactive)
NCI-H226
  GI50: > 100 µM (inactive)
MCF7
  GI50: > 100 µM (inactive)
MOLT-4
  GI50: > 100 µM (inactive)
OVCAR-3
  GI50: > 100 µM (inactive)
CCRF-CEM
  GI50: > 100 µM (inactive)
SK-MEL-5
  GI50: > 100 µM (inactive)
SK-MEL-28
  GI50: > 100 µM (inactive)
NCI/ADR-RES
  GI50: > 100 µM (inactive)
PC-3
  GI50: > 100 µM (inactive)
CAKI-1
  GI50: > 100 µM (inactive)
UO-31
  GI50: > 100 µM (inactive)
NCI-H460
  GI50: > 100 µM (inactive)
KM12
  GI50: > 100 µM (inactive)
COLO 205
  GI50: > 100 µM (inactive)
SF-268
  GI50: > 100 µM (inactive)
DU-145
  GI50: > 100 µM (inactive)
ACHN
  GI50: > 100 µM (inactive)
BT-549
  GI50: > 100 µM (inactive)
SW-620
  GI50: > 100 µM (inactive)
SR
  GI50: > 100 µM (inactive)
SNB-75
  GI50: > 100 µM (inactive)
RXF 393
  GI50: > 100 µM (inactive)
U-251
  GI50: > 100 µM (inactive)
TK-10
  GI50: > 100 µM (inactive)

## COc1ccc(CNc2nc3cc(C(F)(F)F)ccc3nc2C(=O)O)cc1
SNB-19
  GI50: 31.2 µM (inactive)
LOX IMVI
  GI50: 19.4 µM (inactive)
HCT-116
  GI50: 19.2 µM (inactive)
MDA-N
  GI50: 27.7 µM (inactive)
HT-29
  GI50: 24 µM (inactive)
HCC 2998
  GI50: 31.6 µM (inactive)
NCI-H23
  GI50: 24.5 µM (inactive)
M14
  GI50: 22.4 µM (inactive)
SK-MEL-2
  GI50: 23.1 µM (inactive)
OVCAR-5
  GI50: 28.4 µM (inactive)
SF-295
  GI50: 32 µM (inactive)
MDA-MB-435
  GI50: 21.3 µM (inactive)
HOP-92
  GI50: 20.3 µM (inactive)
OVCAR-4
  GI50: 32.9 µM (inactive)
EKVX
  GI50: 23.6 µM (inactive)
IGROV-1
  GI50: 27.4 µM (inactive)
K562
  GI50: 24.7 µM (inactive)
OVCAR-8
  GI50: 32.3 µM (inactive)
HCT-15
  GI50: 22.6 µM
A549
  GI50: 28.8 µM (inactive)
MDA-MB-231
  GI50: 26.9 µM (inactive)
UACC-257
  GI50: 24.8 µM (inactive)
A498
  GI50: 21.5 µM (inactive)
SN12C
  GI50: 21.4 µM (inactive)
HOP-62
  GI50: 21.4 µM (inactive)
786-0
  GI50: 23.1 µM (inactive)
RPMI-8226
  GI50: 39.3 µM (inactive)
SF-539
  GI50: 23 µM (inactive)
NCI-H226
  GI50: 40 µM (inactive)
MCF7
  GI50: 25 µM (inactive)
MOLT-4
  GI50: 21.8 µM (inactive)
OVCAR-3
  GI50: 15.3 µM (inactive)
CCRF-CEM
  GI50: 27.1 µM (inactive)
SK-MEL-5
  GI50: 12.3 µM (inactive)
SK-MEL-28
  GI50: 37.3 µM (inactive)
NCI/ADR-RES
  GI50: 24.3 µM (inactive)
PC-3
  GI50: 31.2 µM (inactive)
CAKI-1
  GI50: 35.8 µM (inactive)
UO-31
  GI50: 17.8 µM (inactive)
UACC-62
  GI50: 21.9 µM (inactive)
NCI-H460
  GI50: 31.4 µM (inactive)
KM12
  GI50: 22.4 µM (inactive)
COLO 205
  GI50: 22.5 µM (inactive)
DU-145
  GI50: 26.7 µM (inactive)
T47D
  GI50: 25.7 µM (inactive)
ACHN
  GI50: 29.4 µM (inactive)
BT-549
  GI50: 23.3 µM (inactive)
SW-620
  GI50: 31.1 µM (inactive)
SR
  GI50: 24.5 µM (inactive)
SNB-75
  GI50: 38 µM (inactive)
U-251
  GI50: 28.6 µM (inactive)
SK-OV-3
  GI50: 40.4 µM (inactive)

## NCCSc1nc2ccccc2c(=O)n1-c1ccccc1
SNB-19
  GI50: 0.236 µM (active)
Malme-3M
  GI50: 30.2 µM (inactive)
LOX IMVI
  GI50: 71.9 µM (inactive)
HCT-116
  GI50: 60.3 µM (inactive)
MDA-N
  GI50: 42.9 µM (inactive)
HT-29
  GI50: 49.7 µM (inactive)
HCC 2998
  GI50: 44.3 µM (inactive)
NCI-H23
  GI50: 50.2 µM (inactive)
M14
  GI50: 53.8 µM (inactive)
SK-MEL-2
  GI50: 67 µM (inactive)
HL-60
  GI50: 32.8 µM (inactive)
OVCAR-5
  GI50: > 100 µM (inactive)
SF-295
  GI50: 28.2 µM (inactive)
NCI-H522
  GI50: 30.8 µM (inactive)
MDA-MB-435
  GI50: 23.9 µM (inactive)
HOP-92
  GI50: 10.3 µM (inactive)
OVCAR-4
  GI50: 52.8 µM (inactive)
EKVX
  GI50: > 100 µM (inactive)
IGROV-1
  GI50: 44.7 µM (inactive)
K562
  GI50: 39.9 µM (inactive)
OVCAR-8
  GI50: 56.6 µM (inactive)
HCT-15
  GI50: 43.8 µM
A549
  GI50: 43.7 µM (inactive)
MDA-MB-231
  GI50: > 100 µM (inactive)
UACC-257
  GI50: 77.1 µM (inactive)
A498
  GI50: 26.5 µM (inactive)
SN12C
  GI50: > 100 µM (inactive)
HOP-62
  GI50: 61.7 µM (inactive)
786-0
  GI50: 51.1 µM (inactive)
RPMI-8226
  GI50: > 10 µM (inactive)
SF-539
  GI50: 32.7 µM (inactive)
NCI-H226
  GI50: > 100 µM (inactive)
MCF7
  GI50: 90.8 µM (inactive)
MOLT-4
  GI50: > 10 µM (inactive)
OVCAR-3
  GI50: > 100 µM (inactive)
CCRF-CEM
  GI50: 45.7 µM (inactive)
SK-MEL-5
  GI50: 74.3 µM (inactive)
SK-MEL-28
  GI50: > 100 µM (inactive)
NCI/ADR-RES
  GI50: 68.9 µM (inactive)
PC-3
  GI50: 27.9 µM (inactive)
CAKI-1
  GI50: 90.6 µM (inactive)
UO-31
  GI50: 24.4 µM (inactive)
UACC-62
  GI50: 26.4 µM (inactive)
KM12
  GI50: 41.7 µM (inactive)
COLO 205
  GI50: > 100 µM (inactive)
T47D
  GI50: 32.6 µM (inactive)
ACHN
  GI50: 21.6 µM (inactive)
BT-549
  GI50: 27.2 µM (inactive)
SW-620
  GI50: 45.5 µM (inactive)
SR
  GI50: 11.9 µM (inactive)
SNB-75
  GI50: 33.9 µM (inactive)
U-251
  GI50: 34.4 µM (inactive)
SK-OV-3
  GI50: > 100 µM (inactive)
TK-10
  GI50: 45.5 µM (inactive)
